Measurements: patent publication US9034887B2, “Dihydroorotate dehydrogenase as antifungal drug target and quinazolinone-based inhibitors thereof” (F2G Limited, priority 2008, dated 2015)
Values after ≈ are worked out from the molar mass of the structure shown.

What was measured:
Aspergillus niger [1] = test: MIC in YAG medium, A. niger; format: cell-based; conditions: 24 hrs at 35° C., >70% growth inhibition, read-out: MIC grade, A. niger
Protocol: (§1) Between 1 and 5 mgs of compound were accurately weighed out into a sterile Eppendorf tube. The compound was dissolved in DMSO to give a solution containing 5 mg/mL. Tubes were stored at −20° C. until required.
(§2) On the day of testing thawed solutions were vortex mixed to ensure homogeneity. 30 μL of solution was removed and added to 570 μL of sterile water in a separate sterile Eppendorf. The thoroughly mixed solution was used to prepare a series of doubling dilutions in water, in a deep well plate. Thirteen replicate plates were prepared using a Minitrak by aspirating 20 μL from each well into eleven clear polystyrene 96 well plates.
(§3) Spores of Aspergillus spp. (Aspergillus fumigatus [two strains], Aspergillus terreus [two strains], Aspergillus niger and Aspergillus flavus) were harvested from cultures grown on Sabarauds agar for 5 days, and resuspended in PBS/Tween 80 to approx 1×10^7 cfu/mL. Each organism suspension was diluted in YAG medium (1% glucose, 1% ammonium chloride and 0.5% yeast extract) to 0.5-2×10^4 cfu/mL. 80 μL of an organism suspension was added to each well of the plate containing drug dilutions.
(§4) All plates were incubated for 24 hrs at 35° C. Growth was assessed by monitoring the optical density at 485 nm for each well. The MIC of a compound is the lowest drug concentration that inhibits growth of an organism by >70% compared with a drug free control. MICs are recorded as mg/L. In cases where the MIC of an organism is […] the MIC is repeated using a concentration range of 0.5-0.0005 mg/L.

[2] = biological target: T1, Recombinant DHODH from human (Homo sapiens, UniProt Q02127); test: DHODH inhibition screen (DCIP reduction, 600 nm), human enzyme; format: biochemical; conditions: Table 3, read-out: IC50 values for Compound Examples 1 to 15 identified from screens, Human
T1 construct: His-tag; NusA (Nus-tag) fusion of vector pET43.1 (own knowledge of the vector) (N); made in house; host or cells: E. coli BL21 DE3
T1 sequence (Q02127 31-395 limits assumed): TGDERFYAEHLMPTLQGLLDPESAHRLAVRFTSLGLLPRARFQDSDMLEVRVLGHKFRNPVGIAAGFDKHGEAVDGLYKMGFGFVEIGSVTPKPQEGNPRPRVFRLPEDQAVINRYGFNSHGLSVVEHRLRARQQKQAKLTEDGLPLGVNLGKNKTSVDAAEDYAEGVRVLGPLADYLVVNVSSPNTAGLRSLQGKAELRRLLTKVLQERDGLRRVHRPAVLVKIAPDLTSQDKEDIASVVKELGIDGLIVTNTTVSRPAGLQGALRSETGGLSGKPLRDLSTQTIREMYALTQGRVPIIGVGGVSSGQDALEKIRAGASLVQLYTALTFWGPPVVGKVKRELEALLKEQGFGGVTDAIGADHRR
Protocol: (§5) 1. The following buffer and stock solution were prepared:
Coenzyme Q2 (Sigma) was dissolved in DMSO to give a concentration of 10 mg/ml. […] The stock solution was made with 127.36 μl DHO, 127.36 μl DCIP and 318.4 μl Coenzyme Q2, made up to 80 ml with Buffer A. Final concentrations in assay wells were; DHO, 500 μM; Coenzyme Q, 50 μM; DCIP, 100 μM.
2. […] Duplicate sets of plates were used such that one set received enzyme while a control set received no enzyme.
3. […] Then 20 μl of DHODH solution was added to all the +enzyme plates and 20 μl of Buffer A was added to all the control −enzyme plates.
(§6) 4. 20 μl of DHO/Coenzyme Q2/DCIP solution was added to all the wells, after which plates were incubated at room temperature for […] and then read on a Tecan Safire spectrophotometer at 600 nm.
(§7) Recombinant DHODH from human or C. albicans was assayed in the same way. It is necessary to adjust the enzyme concentration and reaction time to take into account variations in activity of enzyme batches, thus the incubation time was 20 minutes for the C. albicans enzyme and 34 minutes for the human enzyme.

Aspergillus fumigatus = test: MIC in YAG medium, A. fumigatus; format: cell-based; conditions: 24 hrs at 35° C., >70% growth inhibition, read-out: MIC grade, A. fumigatus
Protocol: as §1, §2, §3, §4

Aspergillus terreus = test: MIC in YAG medium, A. terreus; format: cell-based; conditions: 24 hrs at 35° C., >70% growth inhibition, read-out: MIC grade, A. terreus
Protocol: as §1, §2, §3, §4

[3] = biological target: Recombinant A. fumigatus DHODH (Aspergillus fumigatus, UniProt Q4X169); test: DHODH inhibition screen (DCIP reduction, 600 nm), A. fumigatus enzyme; format: biochemical
Chain of Recombinant A. fumigatus DHODH (Q4X169 entry or part of it): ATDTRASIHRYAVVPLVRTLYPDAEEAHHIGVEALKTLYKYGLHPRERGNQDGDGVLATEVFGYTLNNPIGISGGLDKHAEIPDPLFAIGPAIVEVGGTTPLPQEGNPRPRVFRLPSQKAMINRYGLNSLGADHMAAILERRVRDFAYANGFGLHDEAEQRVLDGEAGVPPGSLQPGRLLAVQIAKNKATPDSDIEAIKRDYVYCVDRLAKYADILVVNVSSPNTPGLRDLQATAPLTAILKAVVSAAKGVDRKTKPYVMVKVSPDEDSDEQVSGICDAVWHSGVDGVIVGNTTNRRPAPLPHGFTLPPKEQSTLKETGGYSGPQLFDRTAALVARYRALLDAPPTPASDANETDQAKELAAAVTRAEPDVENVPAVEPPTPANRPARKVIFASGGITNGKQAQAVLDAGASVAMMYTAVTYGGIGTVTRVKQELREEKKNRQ
Protocol: as §5
Buffer A: 62.5 mM TrisHCl (pH8.0), 150 mM NaCl, 10% v/v glycerol
DHO/Coenzyme Q2/DCIP solution: 19.848 mg dihydroorotate (DHO; Sigma) was dissolved in 160 μl DMSO. Coenzyme Q2 (Sigma) was dissolved in DMSO to give a concentration of 10 mg/ml. 7.236 mg 2,6-dichloroindophenol (DCIP; Sigma) was dissolved in 160 μl DMSO. The stock solution was made with 127.36 μl DHO, 127.36 μl DCIP and 318.4 μl Coenzyme Q2, made up to 80 ml with Buffer A. Final concentrations in assay wells were; DHO, 500 μM; Coenzyme Q, 50 μM; DCIP, 100 μM.
2. Compounds were aliquotted into 384-well microtitre plates at a range of dilutions to give final concentrations in the assay of […]. Duplicate sets of plates were used such that one set received enzyme while a control set received no enzyme. Since compounds are frequently dissolved in DMSO or a DMSO/water mixture, assays were set up to give a final concentration of 1% (v/v) DMSO in wells.
3. Recombinant A. fumigatus DHODH was suspended in Buffer A to give a concentration of 1435.8 ng protein in 20 μl. Then 20 μl of DHODH solution was added to all the +enzyme plates and 20 μl of Buffer A was added to all the control −enzyme plates.
as §6
as §7, with “enzyme. Compounds are screened against a fungal and human enzyme to identify compounds which are selective for the fungal enzyme.” for “enzyme.”

[4] = system: Aspergillus fumigatus AF293; test: MIC in RPMI medium, A. fumigatus; format: cell-based; conditions: 24-48 hrs at 35° C., >80% growth inhibition, read-out: MIC grade, A. fumigatus
Protocol: as §1, §2
(§8) Assays were also performed in RPMI medium. To perform MIC tests in this medium, dilutions of compounds are prepared in microtitre plates as described above. Fungal strains to be tested are grown and harvested in an identical manner to that described above, and each organism suspension was diluted in RPMI medium, containing 2% glucose and 0.135 M MOPS buffer (pH 7.0) to 0.5-2×10^4 cfu/mL, rather than in YAG medium. 80 μL of an organism suspension was added to each well of the plate containing drug dilutions.
(§9) All plates were incubated for 24-48 hrs at 35° C. Growth was assessed by monitoring the optical density at 485 nm for each well. […] The following organisms were tested: Aspergillus flavus, Aspergillus fumigatus AF293 and AF210, Aspergillus niger and Aspergillus terreus AT4 and AT49.

A. fumigatus 210 = test: MIC in YAG medium, A. fumigatus 210; format: cell-based; conditions: Aspergillus fumigatus, 24 hrs at 35° C., >70% growth inhibition, read-out: MIC grade, A. fumigatus 210
Protocol: as §1, §2, §3, §4

Aspergillus terreus AT4 = test: MIC in RPMI medium, A. terreus; format: cell-based; conditions: 24-48 hrs at 35° C., >80% growth inhibition, read-out: MIC grade, A. terreus
Protocol: as §1, §2, §8, §9

[5] = system: Aspergillus fumigatus AF210; test: MIC in RPMI medium, A. fumigatus 210; format: cell-based; conditions: 24-48 hrs at 35° C., >80% growth inhibition, read-out: MIC grade, A. fumigatus 210
Protocol: as §1, §2, §8, §9

Aspergillus flavus [6] = test: MIC in RPMI medium, A. flavus; format: cell-based; conditions: 24-48 hrs at 35° C., >80% growth inhibition, read-out: MIC grade, A. flavus
Protocol: as §1, §2, §8, §9

Aspergillus niger [7] = test: MIC in RPMI medium, A. niger; format: cell-based; conditions: 24-48 hrs at 35° C., >80% growth inhibition, read-out: MIC grade, A. niger
Protocol: as §1, §2, §8, §9

A. terreus 49 = test: MIC in YAG medium, A. terreus 49; format: cell-based; conditions: Aspergillus terreus, 24 hrs at 35° C., >70% growth inhibition, read-out: MIC grade, A. terreus 49
Protocol: as §1, §2, §3, §4

Aspergillus flavus [8] = test: MIC in YAG medium, A. flavus; format: cell-based; conditions: 24 hrs at 35° C., >70% growth inhibition, read-out: MIC grade, A. flavus
Protocol: as §1, §2, §3, §4

Aspergillus terreus AT49 = test: MIC in RPMI medium, A. terreus 49; format: cell-based; conditions: 24-48 hrs at 35° C., >80% growth inhibition, read-out: MIC grade, A. terreus 49
Protocol: as §1, §2, §8, §9

SMILES	MIC (Aspergillus niger [1])	IC50 [2]	MIC (Aspergillus fumigatus)	MIC (Aspergillus terreus)	IC50 [3]	MIC [4]	MIC (A. fumigatus 210)	MIC (Aspergillus terreus AT4)	MIC [5]	MIC (Aspergillus flavus [6])	MIC (Aspergillus niger [7])	MIC (A. terreus 49)	MIC (Aspergillus flavus [8])	MIC (Aspergillus terreus AT49)
CCSc1nc2cc(C)ccc2c(=O)n1-c1ccccc1OC [Compound Example 5, 2-Ethylsulfanyl-3-(2-methoxy-phenyl)-7-methyl-3H-quinazolin-4-one]	< 1 µg/mL	15.5 µM	< 1 µg/mL	< 1 µg/mL	5.4 µM	1 to 10 µg/mL (≈ 3.06 to 30.6 µM)	< 1 µg/mL	1 to 10 µg/mL (≈ 3.06 to 30.6 µM)	1 to 10 µg/mL (≈ 3.06 to 30.6 µM)	> 10 µg/mL	> 10 µg/mL	< 1 µg/mL	< 1 µg/mL	1 to 10 µg/mL (≈ 3.06 to 30.6 µM)
COc1ccccc1-n1c(SC(C)C)nc2ccc(N(C)C)cc2c1=O [Compound Example 6, 6-Dimethylamino-2-isopropylsulfanyl-3-(2-methoxy-phenyl)-3H-quinazolin-4-one]	< 1 µg/mL	1.09 µM	1 to 10 µg/mL (≈ 2.71 to 27.1 µM)	1 to 10 µg/mL (≈ 2.71 to 27.1 µM)	10.1 µM	> 10 µg/mL	1 to 10 µg/mL (≈ 2.71 to 27.1 µM)	> 10 µg/mL	1 to 10 µg/mL (≈ 2.71 to 27.1 µM)	> 10 µg/mL	< 1 µg/mL	1 to 10 µg/mL (≈ 2.71 to 27.1 µM)	> 10 µg/mL	> 10 µg/mL
COc1ccccc1-n1c(SC(C)C)nc2ccccc2c1=O [Compound Example 7, 2-Isopropylsulfanyl-3-(2-methoxy-phenyl)-3H-quinazolin-4-one]	< 1 µg/mL	50.1 µM	< 1 µg/mL	< 1 µg/mL	11.6 µM	1 to 10 µg/mL (≈ 3.06 to 30.6 µM)	< 1 µg/mL	1 to 10 µg/mL (≈ 3.06 to 30.6 µM)	1 to 10 µg/mL (≈ 3.06 to 30.6 µM)	> 10 µg/mL	< 1 µg/mL	1 to 10 µg/mL (≈ 3.06 to 30.6 µM)	> 10 µg/mL	1 to 10 µg/mL (≈ 3.06 to 30.6 µM)
CC(C)Sc1nc2ccccc2c(=O)n1-c1ccccc1C(C)C [Compound Example 8, 3-(2-Isopropyl-phenyl)-2-isopropylsulfanyl-3H-quinazolin-4-one]	< 1 µg/mL	131 µM	< 1 µg/mL	< 1 µg/mL	12.2 µM	< 1 µg/mL	< 1 µg/mL	> 10 µg/mL	1 to 10 µg/mL (≈ 2.95 to 29.5 µM)	> 10 µg/mL	< 1 µg/mL	< 1 µg/mL	> 10 µg/mL	1 to 10 µg/mL (≈ 2.95 to 29.5 µM)
CCc1ccccc1-n1c(SC(C)C)nc2ccccc2c1=O [Compound Example 9, 3-(2-Ethyl-phenyl)-2-isopropylsulfanyl-3H-quinazolin-4-one]	< 1 µg/mL	123 µM	< 1 µg/mL	1 to 10 µg/mL (≈ 3.08 to 30.8 µM)	17.7 µM	< 1 µg/mL	< 1 µg/mL	> 10 µg/mL	> 10 µg/mL	> 10 µg/mL	< 1 µg/mL	< 1 µg/mL	> 10 µg/mL	> 10 µg/mL
